Measured values: ChEMBL document CHEMBL1201862, “PubChem BioAssay data set” (2004)
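Exposure lasted 48 hours, with cells grown in 96-well plates and compounds tested at five concentrations. The concentration for 50% growth inhibition is given as GI50.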 Calls of active or inactive are those of the source. No stated cut-off is given here; in the data, active = GI50 up to about 1.1 µM and inactive = higher.

Assays:
Experiment in all cases: DTP human tumour cell line panel, 48 h
SNB-19 = system: SNB-19
COLO 205 = system: COLO 205
UACC-257 = system: UACC-257
SK-OV-3 = system: SK-OV-3
OVCAR-3 = system: OVCAR-3
CAKI-1 = system: CAKI-1
LOX IMVI = system: LOX IMVI
A498 = system: A498
OVCAR-4 = system: OVCAR-4
NCI-H522 = system: NCI-H522
UO-31 = system: UO-31
LXFL 529 = system: LXFL 529
HOP-62 = system: HOP-62
HCT-116 = system: HCT-116
NCI-H460 = system: NCI-H460
TK-10 = system: TK-10
SK-MEL-5 = system: SK-MEL-5
RPMI-8226 = system: RPMI-8226
HL-60 = system: HL-60

Measured: GI50

O=C(CC(=O)Nc1cccc(Cl)c1)NNCC(=O)Nc1nnc(-c2ccccc2)s1
inactive: SNB-19 36 µM | COLO 205 > 100 µM | UACC-257 99.1 µM | SK-OV-3 26.4 µM | OVCAR-3 32.7 µM | CAKI-1 > 100 µM | LOX IMVI 43.2 µM | A498 20.8 µM | OVCAR-4 2.46 µM | NCI-H522 64.1 µM | UO-31 45 µM | LXFL 529 41.3 µM | HOP-62 21.9 µM | HCT-116 24.8 µM | NCI-H460 11.1 µM | TK-10 45.2 µM | SK-MEL-5 45.8 µM | RPMI-8226 14.2 µM | HL-60 25.7 µM

O=C1Nc2cc(Cl)ccc2N=CC1NC(=O)C(c1ccccc1)c1ccccc1Cl (stereo not given)
inactive: SNB-19 > 100 µM | COLO 205 > 100 µM | UACC-257 > 100 µM | SK-OV-3 > 100 µM | OVCAR-3 > 100 µM | CAKI-1 > 100 µM | LOX IMVI > 100 µM | A498 > 100 µM | OVCAR-4 > 100 µM | NCI-H522 > 100 µM | UO-31 > 100 µM | LXFL 529 > 100 µM | HOP-62 > 100 µM | HCT-116 > 100 µM | NCI-H460 57.9 µM | TK-10 > 100 µM | SK-MEL-5 > 100 µM | RPMI-8226 > 100 µM | HL-60 > 100 µM

C/C(=N\NC(N)=O)C(CN1CCCCC1)C(c1ccccc1)c1c(O)c2ccccc2oc1=O (stereo not given)
inactive: SNB-19 > 100 µM | COLO 205 > 100 µM | UACC-257 > 100 µM | SK-OV-3 > 100 µM | OVCAR-3 > 100 µM | CAKI-1 > 100 µM | LOX IMVI > 100 µM | A498 > 100 µM | OVCAR-4 > 100 µM | NCI-H522 > 100 µM | UO-31 > 100 µM | LXFL 529 > 100 µM | HOP-62 > 100 µM | HCT-116 > 100 µM | NCI-H460 > 100 µM | TK-10 > 100 µM | SK-MEL-5 > 100 µM | RPMI-8226 > 100 µM | HL-60 > 100 µM

Cc1cc(=O)oc2cc(OCc3nc4ccccc4c(=O)n3-c3ccccc3)ccc12
inactive: SNB-19 27.5 µM | COLO 205 > 100 µM | SK-OV-3 53.6 µM | OVCAR-3 > 100 µM | CAKI-1 > 100 µM | LOX IMVI > 100 µM | A498 > 100 µM | OVCAR-4 > 100 µM | NCI-H522 > 100 µM | LXFL 529 > 100 µM | HOP-62 97.7 µM | HCT-116 > 100 µM | NCI-H460 > 100 µM | TK-10 > 100 µM | SK-MEL-5 > 100 µM | RPMI-8226 > 100 µM | HL-60 > 100 µM

CN(C)CCCSc1c2ccccc2nc2cc(NCC(=O)Nc3ccccc3-c3ccccc3NC(=O)CNc3ccc4c(SCCCN(C)C)c5ccccc5nc4c3)ccc12
inactive: SNB-19 > 100 µM | COLO 205 45.1 µM | UACC-257 > 100 µM | SK-OV-3 > 100 µM | OVCAR-3 > 100 µM | CAKI-1 > 100 µM | LOX IMVI > 100 µM | A498 > 100 µM | OVCAR-4 > 100 µM | NCI-H522 > 100 µM | UO-31 > 100 µM | LXFL 529 > 100 µM | HOP-62 > 100 µM | HCT-116 > 100 µM | NCI-H460 > 100 µM | TK-10 > 100 µM | SK-MEL-5 > 100 µM | RPMI-8226 65 µM | HL-60 18.3 µM

CCOC(=O)C(=Cc1ccc(C(=O)OC)cc1)C(=O)OCC
inactive: SNB-19 2.39 µM | COLO 205 1.85 µM | SK-OV-3 13.6 µM | OVCAR-3 3.41 µM | CAKI-1 1.67 µM | LOX IMVI 1.73 µM | A498 13.2 µM | OVCAR-4 3.78 µM | NCI-H522 1.33 µM | LXFL 529 1.75 µM | HOP-62 2.2 µM | HCT-116 3.33 µM | NCI-H460 21.1 µM | TK-10 2.88 µM | SK-MEL-5 2.05 µM | RPMI-8226 1.37 µM | HL-60 1.54 µM
